According to PubChem BioAssay AID330 (DTP/NCI, 2004):
Where “and” joins values, the source holds several entries; their conditions need not be identical. Equal entries are not always repeated. Inconclusive results and toxic doses are left out. Numbered stars: 1 amine (or outer) side, 2 acyl side, 3 side chain; on linkers, the order of the positions; unused ones are H or OH. Bridge positions count the residues as written; N and C are the ends. Square brackets hold non-standard residues; d marks the D form. Peptide text beside a SMILES is read from it. I, II: the chains in the order shown. Actinocin(9to1) = Cc1c2oc3c(C)ccc(C(=O)[*:1])c3nc-2c(C(=O)[*:2])c(N)c1=O; NMeV = CN[CH](C(=O)O)C(C)C; Sar = CNCC(=O)O

System: P388 leukemia ip, CD2F1 mice, survival T/C
Assay: NCI In Vivo Anticancer Drug Screen. Data for tumor model P388 Leukemia (intraperitoneal) in CD2F1 (CDF1) mice
Settings: endpoint: median survival time, higher = longer survival
Procedure, shortened: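 Mice carrying the transplanted tumor received test compound or vehicle. Survival was recorded in each group, and the value is the treated-group measurement divided by that of the vehicle-treated control group.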

[1] = dose: 50.0 mg/kg/injection, schedule: Q01DX009 (ip), vehicle: Klucel (hydroxypropylcellulose) (HPC)
[2] = dose: 100.0 mg/kg/injection, schedule: Q01DX009 (ip), vehicle: Klucel (hydroxypropylcellulose) (HPC)
[3] = dose: 200.0 mg/kg/injection, schedule: Q01DX009 (ip), vehicle: Klucel (hydroxypropylcellulose) (HPC)
[4] = dose: 50.0 mg/kg/injection, schedule: Q01DX005 (ip), vehicle: saline with Tween-80
[5] = dose: 100.0 mg/kg/injection, schedule: Q01DX005 (ip), vehicle: saline with Tween-80
[6] = dose: 25.0 mg/kg/injection, schedule: Q01DX009 (ip), vehicle: saline with Tween-80
[7] = dose: 50.0 mg/kg/injection, schedule: Q01DX009 (ip), vehicle: saline with Tween-80
[8] = dose: 100.0 mg/kg/injection, schedule: Q01DX009 (ip), vehicle: saline with Tween-80
[9] = dose: 200.0 mg/kg/injection, schedule: Q01DX009 (ip), vehicle: saline with Tween-80
[10] = dose: 200.0 mg/kg/injection, schedule: Q01DX005 (ip), vehicle: saline with Tween-80

SMILES: O=C(O)c1cc(Br)ccc1OCc1cccc(Cl)c1
- T/C (dose: 25.0 mg/kg/injection, schedule: Q04DX003 (ip), vehicle: saline with Tween-80): 101 % of control
- T/C (dose: 50.0 mg/kg/injection, schedule: Q04DX003 (ip), vehicle: saline with Tween-80): 98 % of control

SMILES: Cc1c2oc3c(C)ccc(C(=O)NC4C(=O)NC(C(C)C)C(=O)N5CCCC5C(=O)N(C)CC(=O)N(C)C(C(C)C)C(=O)OC4C)c3nc-2c(C(=O)NC2C(=O)NC(C(C)C)C(=O)N3CCCC3C(=O)N(C)CC(=O)N(C)C(C(C)C)C(=O)OC2C)c(N)c1=O (centres undefined) (I: TVP[Sar][NMeV] / II: TVP[Sar][NMeV]; ester I:1-I:C, II:1-II:C; linker I:N-II:N via Actinocin(9to1); configuration not given here)
- T/C (dose: 0.1 mg/kg/injection, schedule: Q01DX009 (ip), vehicle: distilled water + Tween-80): 178 % of control
- T/C (dose: 0.2 mg/kg/injection, schedule: Q01DX009 (ip), vehicle: distilled water + Tween-80): 190 % of control
- T/C (dose: 0.2 mg/kg/injection, schedule: Q01DX009 (ip), vehicle: water): 151 % of control
- T/C (dose: 0.4 mg/kg/injection, schedule: Q01DX009 (ip), vehicle: distilled water + Tween-80): 207 % of control
- T/C (dose: 0.4 mg/kg/injection, schedule: Q01DX009 (ip), vehicle: water): 174 % of control

SMILES: S=C1SCCCN1Cc1ccc(Cl)cc1
- T/C [1]: 95 % of control
- T/C [2]: 104 % of control
- T/C [3]: 107 % of control

SMILES: [O-][n+]1c(C2=C(N3CCCC3)c3ccccc3C2)c(Cl)c(Cl)c(Cl)c1C1=C(N2CCCC2)c2ccccc2C1
- T/C (dose: 25.0 mg/kg/injection, schedule: Q01DX005 (ip), vehicle: saline with Tween-80): 102 % of control
- T/C [4]: 103 % of control
- T/C [5]: 93 % of control

SMILES: Cc1ncc2c(n1)-c1ccccc1OC2O (centres undefined)
- T/C (dose: 50.0 mg/kg/injection, schedule: Q01DX009 (ip), vehicle: saline): 103 % of control
- T/C (dose: 100.0 mg/kg/injection, schedule: Q01DX009 (ip), vehicle: saline): 91 % of control
- T/C (dose: 200.0 mg/kg/injection, schedule: Q01DX009 (ip), vehicle: saline): 100 % of control

SMILES: O=[N+]([O-])c1ccc(SSc2ccc([N+](=O)[O-])cn2)nc1
- T/C [6]: 104 % of control
- T/C [7]: 86 % of control
- T/C [8]: 95 % of control

SMILES: COc1ccc(CSc2ncnc3nc[nH]c23)cc1
- T/C [6]: 91 % of control
- T/C [7]: 87 % of control

SMILES: NC1C([O-])OC(CO)C(O)C1O.O=C1OC(C(O)CO)C([O-])=C1[OH2+].[Cu+2] (centres undefined)
- T/C (dose: 6.25 mg/kg/injection, schedule: Q01DX005 (ip), vehicle: saline): 93 % of control
- T/C (dose: 12.5 mg/kg/injection, schedule: Q01DX005 (ip), vehicle: saline): 99 % of control

SMILES: N#CC1C(=O)NN=C1c1cc2ccccc2oc1=O (centres undefined)
- T/C (dose: 100.0 mg/kg/injection, schedule: Q01DX001 (ip), vehicle: saline): 97 % of control
- T/C (dose: 200.0 mg/kg/injection, schedule: Q01DX001 (ip), vehicle: saline): 100 % of control
- T/C (dose: 400.0 mg/kg/injection, schedule: Q01DX001 (ip), vehicle: saline): 97 % of control

SMILES: CCNC(=S)NN
- T/C (dose: 3.13 mg/kg/injection, schedule: Q01DX009 (ip), vehicle: saline): 106 % of control
- T/C (dose: 6.25 mg/kg/injection, schedule: Q01DX009 (ip), vehicle: saline): 114 % of control
- T/C (dose: 12.5 mg/kg/injection, schedule: Q01DX009 (ip), vehicle: saline): 105 % of control

SMILES: CCCCCCCCCCCCCCCC(CCCCCC)CCCCCC
- T/C (dose: 50.0 mg/kg/injection, schedule: Q01DX001 (ip), vehicle: saline sonified): 113 % of control
- T/C (dose: 100.0 mg/kg/injection, schedule: Q01DX001 (ip), vehicle: saline sonified): 100 % of control
- T/C (dose: 200.0 mg/kg/injection, schedule: Q01DX001 (ip), vehicle: saline sonified): 109 % of control

SMILES: CCCCCCC(/C=C/c1ccc(Cl)c(Cl)c1)=N\Nc1c(F)c(F)c(F)c(F)c1F
- T/C [7]: 86 % of control
- T/C [8]: 99 % of control
- T/C [9]: 98 % of control

SMILES: COc1ccc(C2=Nc3ccccc3SC(c3ccc(OC)cc3)C2)cc1 (centres undefined)
- T/C [1]: 102 % of control
- T/C [2]: 96 % of control
- T/C [3]: 88 % of control

SMILES: O=C1c2ccccc2-n2c1nc1ccccc1c2=O
- T/C [4]: 102 % of control
- T/C [5]: 100 % of control
- T/C [10]: 107 % of control

SMILES: CSc1nc(SC)c2c(C)c(Br)[nH]c2n1
- T/C (dose: 100.0 mg/kg/injection, schedule: Q01DX001 (ip), vehicle: saline with Tween-80): 94 % of control
- T/C (dose: 200.0 mg/kg/injection, schedule: Q01DX001 (ip), vehicle: saline with Tween-80): 94 % of control
- T/C (dose: 400.0 mg/kg/injection, schedule: Q01DX001 (ip), vehicle: saline with Tween-80): 89 % of control

SMILES: CCCCC1CN=C(OCC)N1 (centres undefined)
- T/C (dose: 6.25 mg/kg/injection, schedule: Q01DX005 (ip), vehicle: saline with Tween-80): 104 % of control
- T/C (dose: 12.5 mg/kg/injection, schedule: Q01DX005 (ip), vehicle: saline with Tween-80): 98 % of control

SMILES: O=S(=O)(Cc1cccc(C(F)(F)F)c1)c1nc2cccnc2s1
- T/C [7]: 103 % of control
- T/C [8]: 103 % of control
- T/C [9]: 101 % of control

SMILES: Cc1cc(OC(=O)Nc2c(Cl)cccc2Cl)c(Cl)c(C)c1Cl
- T/C [7]: 112 % of control
- T/C [8]: 109 % of control
- T/C [9]: 105 % of control

SMILES: O=C(NCCCCCCCCNC(=O)C(Cl)Cl)C(Cl)Cl
- T/C [4]: 106 % of control
- T/C [5]: 99 % of control
- T/C [10]: 92 % of control

SMILES: C[n+]1c(-c2cc(Cl)cc(Cl)c2)c2cc(N)ccc2c2ccccc21
- T/C (dose: 3.13 mg/kg/injection, schedule: Q01DX009 (ip), vehicle: water): 120 % of control
- T/C (dose: 6.25 mg/kg/injection, schedule: Q01DX009 (ip), vehicle: water): 122 % of control
- T/C (dose: 12.5 mg/kg/injection, schedule: Q01DX009 (ip), vehicle: water): 114 % of control
- T/C (dose: 25.0 mg/kg/injection, schedule: Q01DX009 (ip), vehicle: water): 102 % of control

SMILES: O=C(CCl)Nc1nc(NC(=O)CCl)nc(NC(=O)CCl)n1
- T/C (dose: 100.0 mg/kg/injection, schedule: Q04DX002 (ip), vehicle: saline): 96 % of control
- T/C (dose: 200.0 mg/kg/injection, schedule: Q04DX002 (ip), vehicle: saline): 96 % of control
- T/C (dose: 400.0 mg/kg/injection, schedule: Q04DX002 (ip), vehicle: saline): 95 % of control

SMILES: CC1=C/N\C(C#N)=C(C#N)/N=C/C(C)=C\N\C(C#N)=C(C#N)/N=C\1
- T/C [1]: 92 % of control
- T/C [2]: 105 % of control
- T/C [3]: 98 % of control

SMILES: C1CCNCC1.CC(=O)[C-](C(C)=O)c1ccccc1.CC(=O)[C-](C(C)=O)c1ccccc1.CC(=O)[C-](C(C)=O)c1ccccc1.CC(=O)[C-](C(C)=O)c1ccccc1.[Eu+3]
- T/C (dose: 100.0 mg/kg/injection, schedule: Q04DX002 (ip), vehicle: Klucel (hydroxypropylcellulose) (HPC)): 86 % of control
- T/C (dose: 400.0 mg/kg/injection, schedule: Q04DX002 (ip), vehicle: Klucel (hydroxypropylcellulose) (HPC)): 97 % of control

SMILES: O=C(c1ccccc1)N1C=CC(=Cc2ccccc2)C=C1
- T/C (dose: 1.56 mg/kg/injection, schedule: Q01DX009 (ip), vehicle: Klucel (hydroxypropylcellulose) (HPC)): 102 % of control
- T/C (dose: 3.12 mg/kg/injection, schedule: Q01DX009 (ip), vehicle: Klucel (hydroxypropylcellulose) (HPC)): 106 % of control
- T/C (dose: 6.25 mg/kg/injection, schedule: Q01DX009 (ip), vehicle: Klucel (hydroxypropylcellulose) (HPC)): 101 % of control and 96 % of control

SMILES: CC(C)(C)SCC(CSC(C)(C)C)(CSC(C)(C)C)CSC(C)(C)C
- T/C (dose: 1.5 mg/kg/injection, schedule: Q01DX001 (ip), vehicle: saline with Tween-80): 102 % of control
- T/C (dose: 3.0 mg/kg/injection, schedule: Q01DX001 (ip), vehicle: saline with Tween-80): 98 % of control
- T/C (dose: 6.0 mg/kg/injection, schedule: Q01DX001 (ip), vehicle: saline with Tween-80): 112 % of control

SMILES: CCc1nc2c(cnn2C)c(=O)n1-c1ccccc1Cl
- T/C (dose: 50.0 mg/kg/injection, schedule: Q01DX005 (ip), vehicle: Klucel (hydroxypropylcellulose) (HPC)): 100 % of control
- T/C (dose: 100.0 mg/kg/injection, schedule: Q01DX005 (ip), vehicle: Klucel (hydroxypropylcellulose) (HPC)): 100 % of control
- T/C (dose: 200.0 mg/kg/injection, schedule: Q01DX005 (ip), vehicle: Klucel (hydroxypropylcellulose) (HPC)): 102 % of control

SMILES: S=C(S)n1nc(-c2ccccc2)c(N=Nc2cccc(Cl)c2Cl)c1-c1ccccc1
- T/C (dose: 100.0 mg/kg/injection, schedule: Q04DX002 (ip), vehicle: saline with Tween-80): 93 % of control
- T/C (dose: 200.0 mg/kg/injection, schedule: Q04DX002 (ip), vehicle: saline with Tween-80): 93 % of control
- T/C (dose: 400.0 mg/kg/injection, schedule: Q04DX002 (ip), vehicle: saline with Tween-80): 109 % of control
